Measured values reported in PubChem BioAssay AID1963977 (Molecular Pharmacology Branch, DTP, NCI, 2024).

Test system: 624824-186-R-J3-PDC multicell spheroids, viability
Assay: Anticancer human tumor 624824-186-R-J3-PDC patient-derived colon adenocarcinoma cell line growth inhibition [PI3K]
Conditions: for viability, T/C: stronger effect = lower value
Procedure, shortened: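 High-throughput combination screen: PI3K inhibitors crossed with targeted small molecules on complex spheroids of tumor cells, HUVEC and MSCs at 37 degrees C, 5% CO2. Top concentration was at or near clinical Cmax (otherwise 10 microM), with half-log decrements.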

[1] = curve of first compound, second compound 0.00316 µM
[2] = curve of first compound, second compound 0.01 µM
[3] = curve of first compound, second compound 0.0316 µM
[4] = curve of first compound, second compound 0.1 µM
[5] = curve of first compound, second compound 0.316 µM
[6] = curve of first compound, second compound 1 µM
[7] = second compound 0.00316 µM, first compound 0.0316 µM
[8] = second compound 0.00316 µM, first compound 0.1 µM
[9] = second compound 0.00316 µM, first compound 0.316 µM
[10] = second compound 0.00316 µM, first compound 1 µM
[11] = second compound 0.00316 µM, first compound 3.16 µM
[12] = second compound 0.00316 µM, first compound 10 µM
[13] = second compound 0.01 µM, first compound 0.0316 µM
[14] = second compound 0.01 µM, first compound 0.1 µM
[15] = second compound 0.01 µM, first compound 0.316 µM
[16] = second compound 0.01 µM, first compound 1 µM
[17] = second compound 0.01 µM, first compound 3.16 µM
[18] = second compound 0.01 µM, first compound 10 µM
[19] = second compound 0.0316 µM, first compound 0.0316 µM
[20] = second compound 0.0316 µM, first compound 0.1 µM
[21] = second compound 0.0316 µM, first compound 0.316 µM
[22] = second compound 0.0316 µM, first compound 1 µM
[23] = second compound 0.0316 µM, first compound 3.16 µM
[24] = second compound 0.0316 µM, first compound 10 µM
[25] = second compound 0.1 µM, first compound 0.0316 µM
[26] = second compound 0.1 µM, first compound 0.1 µM
[27] = second compound 0.1 µM, first compound 0.316 µM
[28] = second compound 0.1 µM, first compound 1 µM
[29] = second compound 0.1 µM, first compound 3.16 µM
[30] = second compound 0.1 µM, first compound 10 µM
[31] = second compound 0.316 µM, first compound 0.0316 µM
[32] = second compound 0.316 µM, first compound 0.1 µM
[33] = second compound 0.316 µM, first compound 0.316 µM
[34] = second compound 0.316 µM, first compound 1 µM
[35] = second compound 0.316 µM, first compound 3.16 µM
[36] = second compound 0.316 µM, first compound 10 µM
[37] = second compound 1 µM, first compound 0.0316 µM
[38] = second compound 1 µM, first compound 0.1 µM
[39] = second compound 1 µM, first compound 0.316 µM
[40] = second compound 1 µM, first compound 1 µM
[41] = second compound 1 µM, first compound 3.16 µM
[42] = second compound 1 µM, first compound 10 µM
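Further: spheroids exposed to agents for seven days before luminescence read.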
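Wherever viability, T/C is given: luminescent signal used as a stand-in for spheroid viability; percent viability relative to DMSO vehicle control wells taken as 100%.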

CCCS(=O)(=O)Nc1ccc(F)c(C(=O)c2c[nH]c3ncc(-c4ccc(Cl)cc4)cc23)c1F
viability, T/C (compound 0.0316 µM): 99.1% [middle of 4 runs] | viability, T/C (compound 0.1 µM): 97.5% [middle of 4 runs] | viability, T/C (compound 0.316 µM): 102% [middle of 4 runs] | viability, T/C (compound 1 µM): 95.5% [middle of 4 runs] | viability, T/C (compound 3.16 µM): 86% [middle of 4 runs] | viability, T/C (compound 10 µM): 11.9% [middle of 4 runs] | IC50 (curve of compound): 5.47 µM [middle of 4 runs]

CNC(=O)c1ccc(N2C(=S)N(c3ccc(C#N)c(C(F)(F)F)c3)C(=O)C2(C)C)cc1F + COc1c(OCCCN2CCOCC2)ccc2c3n(c(=NC(=O)c4cnc(N)nc4)nc12)CCN3
IC50 [1]: > 10 µM | IC50 [2]: > 10 µM | IC50 [3]: > 10 µM | IC50 [4]: > 10 µM | IC50 [5]: < 0.0316 µM | IC50 [6]: < 0.0316 µM | viability, T/C [7]: 116% | viability, T/C [8]: 92.3% | viability, T/C [9]: 114% | viability, T/C [10]: 103% | viability, T/C [11]: 105% | viability, T/C [12]: 107% | viability, T/C [13]: 102% | viability, T/C [14]: 94.5% | viability, T/C [15]: 101% | viability, T/C [16]: 94% | viability, T/C [17]: 104% | viability, T/C [18]: 98% | viability, T/C [19]: 91.1% | viability, T/C [20]: 102% | viability, T/C [21]: 91.2% | viability, T/C [22]: 93.2% | viability, T/C [23]: 88.9% | viability, T/C [24]: 88.8% | viability, T/C [25]: 78% | viability, T/C [26]: 74.5% | viability, T/C [27]: 89.4% | viability, T/C [28]: 71.8% | viability, T/C [29]: 73% | viability, T/C [30]: 72.5% | viability, T/C [31]: 49.2% | viability, T/C [32]: 50.8% | viability, T/C [33]: 47.5% | viability, T/C [34]: 48.5% | viability, T/C [35]: 47.6% | viability, T/C [36]: 34.1% | viability, T/C [37]: 26.7% | viability, T/C [38]: 31% | viability, T/C [39]: 26.7% | viability, T/C [40]: 27.5% | viability, T/C [41]: 26.2% | viability, T/C [42]: 23.9%

CC1(C)CCC(CN2CCN(c3ccc(C(=O)NS(=O)(=O)c4ccc(NCC5CCOCC5)c([N+](=O)[O-])c4)c(Oc4cnc5[nH]ccc5c4)c3)CC2)=C(c2ccc(Cl)cc2)C1 + COc1c(OCCCN2CCOCC2)ccc2c3n(c(=NC(=O)c4cnc(N)nc4)nc12)CCN3
IC50 [1]: > 10 µM | IC50 [2]: > 10 µM | IC50 [3]: > 10 µM | IC50 [4]: > 10 µM | IC50 [5]: < 0.0316 µM | IC50 [6]: < 0.0316 µM | viability, T/C [7]: 114% | viability, T/C [8]: 99.2% | viability, T/C [9]: 111% | viability, T/C [10]: 102% | viability, T/C [11]: 121% | viability, T/C [12]: 105% | viability, T/C [13]: 93.7% | viability, T/C [14]: 99.5% | viability, T/C [15]: 105% | viability, T/C [16]: 105% | viability, T/C [17]: 105% | viability, T/C [18]: 107% | viability, T/C [19]: 95% | viability, T/C [20]: 96.8% | viability, T/C [21]: 89.6% | viability, T/C [22]: 87.6% | viability, T/C [23]: 99.1% | viability, T/C [24]: 85.2% | viability, T/C [25]: 73.1% | viability, T/C [26]: 83.8% | viability, T/C [27]: 74.4% | viability, T/C [28]: 75.5% | viability, T/C [29]: 65% | viability, T/C [30]: 80% | viability, T/C [31]: 50.7% | viability, T/C [32]: 46.9% | viability, T/C [33]: 50.7% | viability, T/C [34]: 47.2% | viability, T/C [35]: 43.1% | viability, T/C [36]: 57.9% | viability, T/C [37]: 29.5% | viability, T/C [38]: 33.7% | viability, T/C [39]: 31.5% | viability, T/C [40]: 33.7% | viability, T/C [41]: 26.9% | viability, T/C [42]: 30.8%
